{"source": "paper PMC10070485", "about": "“In silico study of HASDI (high-affinity selective DNA intercalator) as a new agent capable of highly selective recognition of the DNA sequence” (Scientific Reports, 2023)", "origin": "cited, not measured here", "key": {"DNA sequences [1]": {"test_system": "DNA sequences", "design": "method as in PMID 24446378", "settings": "docking, MD, MM-PBSA, MESP"}, "[2]": {"test_system": "DNA sequences of the d(ATGCAT)2 type", "design": "method as in PMID 34299405", "settings": "diamine linker in the major groove"}, "DNA sequences [3]": {"test_system": "DNA sequences", "design": "method as in PMID 31820194", "settings": "MD, MM-PB(GB)SA, DFT"}, "A-T base pairs": {"test_system": "A-T base pairs", "settings": "fluorescence titrations"}}}
{"compound": "Cc1cc(-c2nc3cc(F)ccc3s2)ccc1N", "note": "[5F]", "values": [{"measurement": "DNA groove specificity", "setting": "DNA sequences [1]", "value": "affinity only to the minor groove"}]}
{"compound": "Nc1cccc2oc(-c3ccccc3)cc(=O)c12", "note": "[AMF, 5-aminoflavone]", "values": [{"measurement": "DNA groove specificity", "setting": "DNA sequences [1]", "value": "stable in the minor groove of AT-rich DNA and in the major groove of GC-rich DNA"}]}
{"compound": "Cc1cccc2nc3cccc(C(=O)NCCNCCNCCNC(=O)c4cccc5nc6cccc(C)c6nc45)c3nc12", "note": "[MLN944]", "values": [{"measurement": "DNA sequence type of greatest affinity", "setting": "[2]", "value": "d(ATGCAT)2"}]}
{"compound": "COc1cccc2c1C(=O)c1c(O)c3c(c(O)c1C2=O)C[C@@](O)(C(C)=O)C[C@@H]3O[C@H]1C[C@H](N)[C@H](O)[C@H](C)O1", "note": "[daunomycin]", "values": [{"measurement": "DNA sequence specificity", "setting": "DNA sequences [3]", "value": "highest affinity for TC/GA rich sequences"}]}
{"compound": "neomycin-Hoechst 33258-pyrene conjugate", "values": [{"measurement": "number of A-T base pairs selectively recognized", "setting": "A-T base pairs", "value": "up to 9"}]}
